The values below come from patent US20120225061A1, “TETRASUBSTITUTED CYCLOHEXYL COMPOUNDS AS KINASE INHIBITORS” (priority 2011, published 2012).

The subject of assay [1] is KMS11 (human myeloma cell line). The assay is described as follows: Cell proliferation assay (CellTiter-Glo) in KMS11 cells. Conditions: KMS-11, 72 h, Table 4, 3 days, read-out: KMS11-luc EC50. The class given is cell-based. An outline of the steps: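 KMS11 cells at 2000 per well in IMDM/10% FBS were exposed to compound for 3 days. Viability was read by CellTiter-Glo luminescence.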

Another assay concerns the target Pim1 kinase (Homo sapiens, UniProt P11309). The assay is described as follows: KinaseGlo Pim1 ATP depletion assay. The class given is biochemical. Conditions: Table 4, 2.5 nM PIM1, 20 μM ATP, 40 μM BAD peptide. The procedure: The activity of PIM1 is measured using a luciferase-luciferin based ATP detection reagent to quantify ATP depletion resulting from kinase-catalyzed phosphoryl transfer to a peptide substrate. Compounds to be tested are dissolved in 100% DMSO and directly distributed into white 384-well plates at 0.5 μl per well. […] After 15 minutes, 10 μl of 40 μM ATP in assay buffer is added. […] The reaction is performed until approximately 50% of the ATP is depleted, then stopped with the addition of 20 μl KinaseGlo Plus (Promega Corporation) solution. The stopped reaction is incubated for 10 minutes and the remaining ATP detected via luminescence on the Victor2 (Perkin Elmer).
A general note: Kinase-Glo reads ATP consumption through a luciferase reaction.

The next assay concerns the target Pim3 kinase (Homo sapiens, UniProt Q86V86). Description: KinaseGlo Pim3 ATP depletion assay. It counts as biochemical. Conditions: Table 4, 40 μM ATP, 100 μM BAD peptide. The procedure:
The activity of PIM3 is measured using a luciferase-luciferin based ATP detection reagent to quantify ATP depletion resulting from kinase-catalyzed phosphoryl transfer to a peptide substrate. Compounds to be tested are dissolved in 100% DMSO and directly distributed into white 384-well plates at 0.5 μl per well. […] After 15 minutes, 10 μl of 80 μM ATP in assay buffer is added. Final assay concentrations are 5 nM PIM1, 40 μM ATP, 100 μM BAD peptide and 2.5% DMSO. The reaction is performed until approximately 50% of the ATP is depleted, then stopped by the addition of 20 μl KinaseGlo Plus (Promega Corporation) solution. The stopped reaction is incubated for 10 minutes and the remaining ATP detected via luminescence on the Victor2 (Perkin Elmer).

In the next assay the target is Pim2 kinase (Homo sapiens, UniProt Q9P1W9). The assay is described as follows: KinaseGlo Pim2 ATP depletion assay. The class given is biochemical. Conditions: Table 4, 5 nM PIM2, 4 μM ATP, 10 μM BAD peptide.
Pim2 kinase, sequence (Q9P1W9 whole entry): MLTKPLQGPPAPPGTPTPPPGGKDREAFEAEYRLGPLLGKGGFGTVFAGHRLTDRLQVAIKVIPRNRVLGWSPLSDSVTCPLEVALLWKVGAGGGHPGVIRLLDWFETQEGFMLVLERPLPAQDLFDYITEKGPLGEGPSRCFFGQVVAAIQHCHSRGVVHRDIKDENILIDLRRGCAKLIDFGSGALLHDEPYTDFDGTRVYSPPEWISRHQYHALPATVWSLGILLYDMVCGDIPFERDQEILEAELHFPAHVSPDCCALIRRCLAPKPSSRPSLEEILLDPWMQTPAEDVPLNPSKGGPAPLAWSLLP

Pim1 kinase, sequence (P11309 whole entry): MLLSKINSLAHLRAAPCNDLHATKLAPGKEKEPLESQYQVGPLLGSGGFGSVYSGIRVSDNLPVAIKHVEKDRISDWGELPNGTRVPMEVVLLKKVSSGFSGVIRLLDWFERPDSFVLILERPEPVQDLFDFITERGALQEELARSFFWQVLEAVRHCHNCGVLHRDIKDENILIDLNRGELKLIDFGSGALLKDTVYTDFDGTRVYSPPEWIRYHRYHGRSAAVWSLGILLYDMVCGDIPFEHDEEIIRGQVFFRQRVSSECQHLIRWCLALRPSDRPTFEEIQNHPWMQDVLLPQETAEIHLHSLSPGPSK

In the case of `Cc1nn(C)cc1-c1ccc(N)c(C(=O)Nc2cnccc2[C@H]2C[C@@H](O)[C@](C)(O)[C@@H](C)C2)n1` [Example 140, 3-amino-N-(4-((1R,3R,4R,5S)-3,4-dihydroxy-4,5-dimethylcyclohexyl)pyridin-3-yl)-6-(1,3-dimethyl-1H-pyrazol-4-yl)picolinamide], the EC50 in assay [1] is ≥ 10000 nM. Besides, the results for the IC50 on Pim1 kinase, against Pim3 kinase and on Pim2 kinase were 7.5 nM, 15.2 nM and 130 nM, respectively.
Taken in the same sequence, the figures for `C[C@H]1C[C@@H](c2ccncc2NC(=O)c2nc(-c3c(F)cncc3F)ccc2N)C[C@@H](O)[C@]1(C)O` [Example 141, 5-amino-N-(4-((1R,3R,4R,5S)-3,4-dihydroxy-4,5-dimethylcyclohexyl)pyridin-3-yl)-3′,5′-difluoro-2,4′-bipyridine-6-carboxamide] were 4870 nM, 1.1 nM, 2.2 nM and 2.1 nM.
As for `C[C@H]1C[C@@H](c2ccncc2NC(=O)c2nc(-c3ccnnc3)ccc2N)C[C@@H](O)[C@]1(C)O` [Example 142, 3-amino-N-(4-((1R,3R,4R,5S)-3,4-dihydroxy-4,5-dimethylcyclohexyl)pyridin-3-yl)-6-(pyridazin-4-yl)picolinamide], the EC50 in assay [1] was ≥ 10000 nM. In addition, the IC50 against Pim1 kinase was 152 nM; at Pim3 kinase, 245 nM; at Pim2 kinase, 769 nM.
Take `Cc1c(-c2ccc(N)c(C(=O)Nc3cnccc3[C@H]3C[C@@H](O)[C@](C)(O)[C@@H](C)C3)n2)cnn1C` [Example 143, 3-amino-N-(4-((1R,3R,4R,5S)-3,4-dihydroxy-4,5-dimethylcyclohexyl)pyridin-3-yl)-6-(1,5-dimethyl-1H-pyrazol-4-yl)picolinamide]: the EC50 in assay [1] stood at 6690 nM. For the same compound, the IC50 on Pim1 kinase amounted to 8.8 nM; at Pim3 kinase it was 8.7 nM; against Pim2 kinase, 120 nM.
Taken in the same sequence, the figures for `C[C@H]1C[C@@H](c2ccncc2NC(=O)c2nc(-c3ncccc3Cl)ccc2N)C[C@@H](O)[C@]1(C)O` [Example 144, 5-amino-3′-chloro-N-(4-((1R,3R,4R,5S)-3,4-dihydroxy-4,5-dimethylcyclohexyl)pyridin-3-yl)-2,2′-bipyridine-6-carboxamide] were 4220 nM, 0.7 nM, 2.3 nM and 7.7 nM.

By EC50 is commonly meant the midpoint of the concentration-response curve. One may read the IC50 as the concentration at which inhibition is half-maximal.
